According to patent publication US7317115B2, “Mandelates salts of substituted tetracyclic tetrahydrofuran derivatives” (Janssen Pharmaceutica, N.V., priority 2001, dated 2008):
Entries after “also recorded” stand apart in the source; their conditions may differ.

Experiments:
Type in all cases: physicochemical
[1] = Chemical stability (HPLC and visual inspection after storage); details: for HPLC Sum of impurities: in % (unit assumed)
Procedure: In the chemical stability test program the salts are stored for periods of 2, 4 and 8 weeks under different conditions. These conditions are 40° C./75% RH, 50° C., daylight, RT/5% RH, RT/75% RH, 25° C./60% RH and artificial light. The mandelate salt and the ditoluoyltartrate salt are also stored 8 hours in 0.3 da ICH light. The compounds are analyzed after storage by HPLC and by visual inspection.

[2] = Crystallographic stability (TGA, DSC, IR after storage); for IR: key: ~Ref: identical with reference
Procedure: The stability of the crystal structure of the salt is studied after storage of the compounds for a period of two weeks at room temperature (RT) under either 5%, 75% and 25° C./60% relative humidity (RH). The samples are analyzed with thermogravimetry (TGA), differential scanning calorimetry (DSC) and infrared spectroscopy (IR).

[3] = Adsorption and desorption of water; details: 25° C., different relative humidity; listed as tartrate salt
Procedure: The adsorption and desorption of water at 25° C. at different conditions of relative humidity is investigated on an amount of ±10 mg of each salt. The weight change as a function of relative humidity is registered.

With “B-(2α,3aα,12bβ)-11-fluoro-3,3a,8,12b-tetrahydro-N-methyl-2H-dibenzo-[3,4:6,7]cyclohepta[1,2-b]furan-2 methanamine [Tartrate]” the Appearance ([1]; 25° C./60% RH, 4 weeks) was “white”, the “HPLC Sum of impurities” value ([1]; 25° C./60% RH, 4 weeks) was 0.75 and the Appearance ([1]; 25° C./60% RH, 8 weeks) was “white”. The “HPLC Sum of impurities” value ([1]; 25° C./60% RH, 8 weeks) was 0.77, the Appearance ([1]; 40° C./75% RH, 2 weeks) was “white” and the “HPLC Sum of impurities” value ([1]; 40° C./75% RH, 2 weeks) was 0.72. The Appearance ([1]; 40° C./75% RH, 4 weeks) was “white”, the “HPLC Sum of impurities” value ([1]; 40° C./75% RH, 4 weeks) was 0.83 and the Appearance ([1]; 40° C./75% RH, 8 weeks) was “almost white”. For the same substance, the “HPLC Sum of impurities” value ([1]; 40° C./75% RH, 8 weeks) was 0.93, the Appearance ([1]; 50° C., 2 weeks) was “white” and the “HPLC Sum of impurities” value ([1]; 50° C., 2 weeks) was 0.72. For the same substance, the Appearance ([1]; 50° C., 4 weeks) was “white”, the “HPLC Sum of impurities” value ([1]; 50° C., 4 weeks) was 0.77 and the Appearance ([1]; 50° C., 8 weeks) was “almost white”. For the same substance, the “HPLC Sum of impurities” value ([1]; 50° C., 8 weeks) was 0.79, the Appearance ([1]; Artificial light (2 weeks)) was “white” and the “HPLC Sum of impurities” value ([1]; Artificial light (2 weeks)) was 0.79. The Appearance ([1]; Daylight, 2 weeks) was “white”, the “HPLC Sum of impurities” value ([1]; Daylight, 2 weeks) was 0.75 and the Appearance ([1]; Daylight, 4 weeks) was “almost”. The “HPLC Sum of impurities” value ([1]; Daylight, 4 weeks) was 0.85, the Appearance ([1]; Daylight, 8 weeks) was “slightly” and the “HPLC Sum of impurities” value ([1]; Daylight, 8 weeks) was 0.91. The Appearance ([1]; RT/75% RH, 4 weeks) was “white”, the “HPLC Sum of impurities” value ([1]; RT/75% RH, 4 weeks) was 0.72 and the Appearance ([1]; RT/75% RH, 8 weeks) was “white”. For the same substance, the “HPLC Sum of impurities” value ([1]; RT/75% RH, 8 weeks) was 0.80, the Appearance ([1]; RT/<5% RH, 4 weeks) was “white” and the “HPLC Sum of impurities” value ([1]; RT/<5% RH, 4 weeks) was 0.73. For the same substance, the Appearance ([1]; RT/<5% RH, 8 weeks) was “white”, the “HPLC Sum of impurities” value ([1]; RT/<5% RH, 8 weeks) was 0.75 and the Appearance ([1]; Reference (2 weeks)) was “white”. For the same substance, the “HPLC Sum of impurities” value ([1]; Reference (2 weeks)) was 0.72, the chemical stability ([1]; storage 2, 4 and 8 weeks under different conditions, listed as tartrate salt) was “showed a sensitivity towards 40° C./70% RH and light; also recorded: shows sensitivity towards higher humidities and light” and the Appearance ([2]; 0 days) was “white”. For the same substance, the “DSC Max” value ([2]; 0 days) was 158.8 °C, the “DSC ΔH” value ([2]; 0 days) was 85.9 J/g and the TGA <100° C. ([2]; 0 days) was 0%. The crystallographic stability ([2]; storage two weeks under different relative humidities, listed as tartrate salt) was “crystallographic stable; also recorded: crystallographically stable”, the Appearance ([2]; two weeks, RT/56% RH) was “white” and the “DSC Max” value ([2]; two weeks, RT/56% RH) was 159.0 °C. The “DSC ΔH” value ([2]; two weeks, RT/56% RH) was 86.2 J/g, the IR ([2]; two weeks, RT/56% RH) was “~Ref” and the TGA <100° C. ([2]; two weeks, RT/56% RH) was 0.1%. For the same substance, the Appearance ([2]; two weeks, RT/75% RH) was “white”, the “DSC Max” value ([2]; two weeks, RT/75% RH) was 159.0 °C and the “DSC ΔH” value ([2]; two weeks, RT/75% RH) was 85.5 J/g. For the same substance, the TGA <100° C. ([2]; two weeks, RT/75% RH) was 0%, the Appearance ([2]; two weeks, RT/<5% RH) was “white” and the “DSC Max” value ([2]; two weeks, RT/<5% RH) was 160.3 °C. For the same substance, the “DSC ΔH” value ([2]; two weeks, RT/<5% RH) was 86.4 J/g, the TGA <100° C. ([2]; two weeks, RT/<5% RH) was 0% and the “water adsorption/desorption behaviour (weight change as a function of relative humidity)” value [3] was “less stable but the weight change as a function of the relative humidity is very small; also recorded: good adsorption desorption profile”.
